Data from patent US9808434B2, “Compound for treating cancer and diabetes” (CITY OF HOPE, priority 2011, dated 2017).

Columns and labels:
AMPK = AMPK activation in HL-60 cells, Western blot; format: cell-based, human; details: 1 hour
Experimental: Activation of AMPK was associated with the phosphorylation of the α-subunit on Thr-172 of as assessed using phospho-specific antibodies (FIGS. 10A-B). AMPK activation also leads to the increased phosphorylation of the target protein acetyl-CoA carboxylase (ACC) (FIG. 10B).
Cells of each cell lines (Hela, HL-60, and 3T3-L1) were treated for 1 hour with a test compound (COH-SR4, COH-SR9, COH-SR16, or COH-SR18) at a concentration of 1 μM, 3 μM, or 5 μM, or AICAR (5-aminoimidazole-4-carboxamideriboside, an AMPK agonist used as positive control) at a concentration of 500 μM, or none of the above (the untreated cells as negative control). Total cell lysates from the untreated cells and the cells treated with a test compound or AICAR were analyzed by Western blot assay using specific antibodies against phospho-AMPK, phospho-ACC, total AMPK and total ACC.

PBT-017 = assay: Glioma ATP viability assay, PBT-017; format: cell-based; details: 72 h
Experimental: (§1) Cells of each cell line (U251, U87, PBT-017, PBT018, PBT003 and PBT028) were treated with various concentrations (0˜100 μM) of COH-SR4 for 72 hours. Cell viabilities were determined by ATP viability assays. Data were represented as a ratio to vehicle (DMSO) control, and plotted as mean±SEM (n=12) obtained from 2˜3 experiments (FIG. 34A).
as §1, with “(U87, U251,” for “(U251, U87, PBT-017, PBT018,”, “PVT-017)” for “PBT028)”, “2-3” for “2˜3”, “34B).” for “34A).”
Cells of each cell line were treated with various concentrations (0˜100 μM) of COH-SR4 or various concentrations (0˜1000 μM) of TMZ for 72 hours. Cell viabilities were determined by ATP viability assays. Data were represented as a ratio to untreated cells as control, and plotted as mean±SEM (n=12) obtained from 2˜3 experiments (FIGS. 43A-B).

HAVSMC = assay: Colony formation assay, HAVSMC; format: cell-based, human; details: for colony forming potential: vs untreated control
Experimental: Cell survival was evaluated using a standard colony-forming assay. In total, 1×10^5 cells/mL were incubated with COH-SR4 (1.5 μM or 5 μM) or elesclomol (5 μM) for 24 h, and aliquots of 50 or 100 μL were added to 60 mm size petri dishes, containing 4 mL culture medium. After 7 or 10 days, adherent colonies were fixed, stained with 0.5% methylene blue for 30 min and colonies were counted using the Innotech Alpha Imager HP (91).

A2058 human melanoma = format: in vivo
Experimental: For melanoma studies, C57B mice (for syngeneic B16-F0 mouse melanoma model) and Hsd: Athymic nude nu/nu mice (for A2058 human melanoma mouse xenografts model), were obtained from Harlan, Indianapolis, Ind. All animal experiments were carried out in accordance with a protocol approved by the Institutional Animal Care and Use Committee (IACUC). […] All animals were injected with 2×10^6 melanoma cells suspensions in 100 μL of PBS, subcutaneously into one flank of each mouse. Treatment was started 10 days after the implantation to see palpable tumor growth. […] Control groups were treated with 200 μL corn oil by oral gavage alternate days. Animals were examined daily for signs of tumor growth. Tumors were measured in two dimensions using calipers. Photographs of animals were taken at day 1, day 10, day 14, day 18, day 20, day 30, and day 51 after subcutaneous injection, are shown for all groups. Photographs of tumors were also taken at day 20 (for syngeneic model), and at day 51 (for xenograft model).
C57B mice (for syngeneic B16-F0 mouse melanoma model) and Hsd: Athymic nude nu/nu mice (for A2058 human melanoma mouse xenografts model), were used for testing the impact of oral administration of COH-SR4 on melanoma progression in vivo models. […] All animals were injected with 2×10^6 melanoma cells suspensions in 100 μL of PBS, subcutaneously into one flank of each mouse. Treatment was started 10 days after the implantation of melanoma cells. […] Control groups were treated with 200 μL corn oil by oral gavage alternate day. Animals were examined daily for signs of tumor growth and body weights were recorded. […] Animals were examined daily for signs of tumor growth. Tumors were measured in two dimensions using calipers. […] Weights and photographs of tumors were also taken at day 20 (for syngeneic model), and at day 51 (for xenograft model) (FIG. 70B). […] Tumors were measured in two dimensions using calipers and time-course analysis of tumor regression was performed during the study. […]

A2058 p^0 cells = assay: Oxygen consumption rate in mitochondrial DNA-depleted cells; format: cell-based, human; details: compared with wild-type A2058; data not shown
Experimental: Oxygen consumption rate (OCR), a measure of OxPhos, and extracellular acidification rate (ECAR), a measure of lactate production by glycolysis, were measured using a Seahorse Xf^e96 Flux Analyzers (Seahorse Biosciences, North Billerica, Mass.). Cells were seeded in DMEM media in Seahorse 96-well tissue culture plates at a density of 5×10^3 cells/well and allowed to adhere for 24 h. Prior to the assay, the media was changed to unbuffered DMEM containing 25 mM glucose, 1 mM pyruvate and 1 mM glutamine, with 0.2% fatty acid/endotoxin-free BSA (w/v) (pH 7.4) and the cells were equilibrated for 30 min at 37° C. Test compounds were injected during the assay and OCR and ECAR were measured using 2-3 min measurement periods. Similar sets of experiments were performed in the presence of the mitochondria recoupler agent 6-KCH or the mitochondrial permeability transition (MPT) pore blocker CSA, where each compound was injected into the assay media prior to COH-SR4 or FCCP injection. […] OCR was measured throughout the different injections of the stressors and test compounds (indicated by arrows in the figures).
To verify that COH-SR4 acts directly on mitochondrial respiration, OCR in mitochondrial DNA-depleted (p^0) A2058 cells was measured, as well as freshly isolated mouse liver mitochondria and treated with either COH-SR4 or FCCP.

## O=C(Nc1cc(Cl)cc(Cl)c1)Nc1cc(Cl)cc(Cl)c1 [COH-SR4, 1,3-bis(3,5-dichlorophenyl) urea]
AMPK
  AMPK activation: activated AMPK
PBT-017; Table 1
  IC50: 2000 nM
PBT-017; Table 2
  IC50: 2100 nM
HAVSMC; 1.5 μM
  colony formation in normal cells: did not result in significant inhibition of colony formation
HAVSMC; Example 18, FIG. 65B
  colony forming potential: 96±4%
HAVSMC; FIG. 67B, 5 μM
  colony forming potential: 95±4%
A2058 human melanoma; 20 mg/kg b.w.
  tumor regression and toxicity at higher dosage: no further improvement in tumor regression and no toxicity was observed
A2058 human melanoma; day 51, control 1.91±0.3 g
  tumor weight: 0.7 ± 0.1 g
A2058 human melanoma; vehicle censored by day 51±3
  survival (still alive): ≥ 88 days
A2058 p^0 cells
  OCR in mitochondrial DNA-depleted cells: failed to increase OCR
